Source: patent US10647680B2, “Urea compound, preparation method therefor and medical use thereof” (Ancureall Pharmaceutical (Shanghai) Co., Ltd., priority 2016, dated 2020)
Counter-ions that a name gives are not always drawn.

What was measured:
[1] = system: OCI-AML3 (NPMc+ mutant type); assay: In vitro growth inhibition (GI50), OCI-AML3; format: cell-based; conditions: Homo sapiens, OCI-AML-3; Cell lines of leukemia; read-out: GI 50 OCI- AML3 NPMc+
Description: (§1) 1. Cell Lines and Cell Cultures
(§2) Tumor cell line is an effective cell model for studying the inhibition of tumor cell growth or proliferation in vitro. In the present invention, a representative tumor cell line was selected to determine the cell growth inhibition activity of the present compound. All cell lines used were from ATCC, DSMZ, and the Cell Bank of the Chinese Academy of Sciences. Cell culture conditions and methods were in accordance with the requirements of each cell line. Cells were subcultured in vitro for no more than 3 passages each time, and as required, single-clone purification and identification of cell lines could be carried out.
(§3) The cell culture media used were RPMI1640 (Gibco), MEM (Gibco), McCOY'S5A (Gibco), and IMDM (Gibco). The complete medium was prepared by supplement with 5˜20% fetal calf serum (Gibco), 1% double-antibiotics (10000 units/mL penicillin and 10000 units/mL), 2 mM glutamine or 1 mM sodium pyruvate, respectively.
(§4) The human acute […] monomonocyte leukemia cell line MV4-11 (FLT3 ITD+/+ mutant type, ATCC) was cultured in a complete medium comprising 1×IMDM and 10% FBS. Human acute myeloid leukemia cell line MOLM-13 (FLT3 ITD+/− mutant type, DSMZ), human acute lymphoblastic leukemia cell line RS4; 11 (FLT3 wild type, ATCC), human chronic granulocytic leukemia cell line K562 (FLT3 negative expression, positive expression of BCR-ABL fusion protein, ATCC), human promyelocytic leukemia cell line HL-60 (FLT3 wild type, ATCC), human B lymphoblastic leukemia cell line RAMOS (positive expression of Brutons tyrosine protein kinase, ATCC), human acute myeloid leukemia cell line Kasumi-1 (c-Kit N822K mutant type, ATCC), human acute monocytic leukemia cell line U937 (FLT3 wild-type, ATCC), human acute myeloid leukemia cell line OCI-AML3 (NPMc+ mutant type, ATCC), human acute myeloid leukemia cell line KG-1 (expressing FGFR1OP2-FGFR1 fusion protein, ATCC) were cultured in a complete medium comprising 1×RPMI1640 and 10% FBS, respectively.
(§5) The suspension cells were collected by centrifugation. The supernatant was discarded and the cell pellet was resuspended and counted. Different cell concentrations (5˜10×10^4 cells/mL) were prepared according to the growth cycle of each cell line and then seeded on a 96-well plate (Corning), 100 μL/well. The cells were incubated overnight at 37° C., 5% CO2. The compounds were added to the cells on the second day with 2 wells in parallel. The final concentration of organic solvent shall not exceed 1%. The cells were continually incubated for 3 to 5 days, and then subjected to MTT assay.
(§6) The compound was stored in a concentration of 10 mM at −20° C. and diluted to 2- or 10-fold series prior to use.
(§7) Dojindo CCK8 reagent kit was used as MTT assay. […] FC meter was used as microplate reader.
(§8) For adherent cells, culture medium was removed and immediately replaced with the fresh prepared medium which contains 10% CCK8 reagent (100 μL/well). For the suspension cells, CCK8 was directly added to 10% of the final concentration. The cells were continually incubated for 1˜4 h. […] The experiment was independently repeated 1˜3 times, and subject to biological statistical analysis. 4. Experimental Results
(§9) The initial concentration of the compound was 5,000 nM, then it was serially diluted by 2-fold or 10-fold to 0.01 nM. The GI50 value of each test compound was calculated according to the GI50 assay and calculation method. The experiments were repeated 1 to 3 times, and data were subjected to biological statistical analysis.

[2] = system: KG-1 (expressing FGFR1OP2-FGFR1 fusion protein); assay: In vitro growth inhibition (GI50), KG-1; format: cell-based; conditions: Homo sapiens; Cell lines of leukemia; read-out: GI 50 KG-1 FGFR1OP 2-FGFR1
Description: as §1, §2, §3, §4, §5, §6, §7, §8, §9

[3] = system: RAMOS (positive expression of Brutons tyrosine protein kinase); assay: In vitro growth inhibition (GI50), RAMOS; format: cell-based; conditions: Homo sapiens, Cell lines of leukemia, read-out: GI 50 Ramos BTK
Description: as §1, §2, §3, §4, §5, §6, §7, §8, §9

[4] = system: K562 (FLT3 negative expression, positive expression of BCR-ABL fusion protein); assay: In vitro growth inhibition (GI50), K562; format: cell-based; conditions: Homo sapiens, Cell lines of leukemia, read-out: GI 50 K562 BCR-ABL
Description: as §1, §2, §3, §4, §5, §6, §7, §8, §9

[5] = system: HL-60 (FLT3 wild type); assay: In vitro growth inhibition (GI50), HL-60; format: cell-based; conditions: Homo sapiens, Cell lines of leukemia, read-out: GI 50 HL60 FLT3 (WT)
Description: as §1, §2, §3, §4
as §5, with “Adherent cells were digested with 0.25% pancreatin-EDTA (Gibco). The suspension” for “The suspension”
(§10) The compound of the present invention and the control compound were dissolved in DMSO (Sigma) respectively, with the purity of more than 98%. The compound was stored in a concentration of 10 mM at −20° C. and diluted to 2- or 10-fold series prior to use.
(§11) Dojindo CCK8 reagent kit was used as MTT assay. THERMO […] FC meter was used as microplate reader.
(§12) For adherent cells, culture medium was removed and immediately replaced with the fresh prepared medium which contains 10% CCK8 reagent (100 μL/well). For the suspension cells, CCK8 was directly added to 10% of the final concentration. The cells were continually incubated for 1˜4 h. When a dark yellow color could be observed in the solvent control wells, the absorbance value at OD450 nm was measured and the cell growth rate was calculated according to the following formula: Cell Growth Rate (%)=100*(T−T0)/(C−T0) T=optical density of drug treatment cell well—optical density of blank control well; T0=optical density of cell well before drug treatment—optical density of blank control well; C=optical density of cell well of solvent control group—optical density of blank control well. The concentration value of 50% inhibition of cell growth (GI50) was calculated according to the drug concentration and cell growth rate curve. […]

[6] = system: Kasumi-1 (c-Kit N822K mutant type); assay: In vitro growth inhibition (GI50), Kasumi-1; format: cell-based; conditions: Homo sapiens, Cell lines of leukemia, read-out: GI 50 Kasumi-1 Kit (N822K)
Description: as §1, §2, §3, §4
as §5, with “Adherent cells were digested with 0.25% pancreatin-EDTA (Gibco). The suspension” for “The suspension”
as §10, §11, §12

[7] = system: U937 (FLT3 wild-type); assay: In vitro growth inhibition (GI50), U937; format: cell-based; conditions: Homo sapiens, U-937; Cell lines of leukemia; read-out: GI 50 U937 FLT 3(WT)
Description: as §1, §2, §3, §4, §5, §6, §7, §8, §9

[8] = system: RS4; 11 (FLT3 wild type); assay: In vitro growth inhibition (GI50), RS4; 11; format: cell-based, human; conditions: Homo sapiens, RS4-11; Cell lines of leukemia; read-out: GI 50 RS4: 11 FLT3 (WT)
Description: as §1, §2, §3, §4, §5, §6, §7, §8, §9

[9] = system: MOLM-13 (FLT3 ITD+/− mutant type); assay: In vitro growth inhibition (GI50), MOLM-13; format: cell-based, human; conditions: Homo sapiens, MOLM-13; Cell lines of leukemia; read-out: GI 50 MOLM-13 FLT3 (ITD+/−)
Description: as §1, §2, §3, §4, §5, §6, §7, §8, §9

[10] = system: MV4-11 (FLT3 ITD+/+ mutant type); assay: In vitro growth inhibition (GI50), MV4-11; format: cell-based, human; conditions: Homo sapiens, MV4-11; Cell lines of leukemia; read-out: GI 50 MV4-11 FLT3 (ITD +/+)
Description: as §1, §2, §3, §4, §5, §6, §7, §8, §9

Row | Structure (SMILES) | GI50 [1] | GI50 [2] | GI50 [3] | GI50 [4] | GI50 [5] | GI50 [6] | GI50 [7] | GI50 [8] | GI50 [9] | GI50 [10]
1 | CC(C)(C)c1cc(NC(=O)Nc2ccc(-c3cn4c(n3)sc3cc(OCCN5CCOCC5)ccc34)cc2)no1 [AC220, N-(5-tert-butyl-isoxazol-3-yl)-N′-{4-[7-(2-morpholin-4-yl-ethoxy)imidazo[2,1-b][1,3]benzothiazol-2-yl]phenyl}urea dihydrochloride, reference compound] | > 1000 nM | > 1000 nM | > 1000 nM | – | – | – | – | – | – | –
2 | O=C(Nc1ccc(-n2cnc3ccccc32)cc1)Nc1ccon1 [Compound 1, 1-(4-benzimidazol-1-yl-phenyl)-3-isoxazol-3-yl-urea] | > 1000 nM | > 1000 nM | > 1000 nM | > 1000 nM | > 1000 nM | > 1000 nM | > 1000 nM | > 1000 nM | > 1000 nM | > 1000 nM
3 | Cc1cc(NC(=O)Nc2ccc(-n3cnc4ccccc43)cc2)no1 [Compound 2, 1-(4-benzimidazol-1-yl-phenyl)-3-(5-methyl-isoxazol-3-yl)-urea] | > 1000 nM | > 1000 nM | > 1000 nM | > 1000 nM | > 1000 nM | > 1000 nM | > 1000 nM | > 1000 nM | > 1000 nM | > 1000 nM
4 | CC(C)(C)c1cc(NC(=O)Nc2ccc(-n3cnc4ccccc43)cc2)no1 [Compound 3, 1-(4-benzimidazol-1-yl-phenyl)-3-(5-tert-butyl-isoxazol-3-yl)-urea] | > 1000 nM | > 1000 nM | > 1000 nM | > 1000 nM | > 1000 nM | > 1000 nM | > 1000 nM | > 1000 nM | 0.1 to 1 nM | 0.1 to 1 nM
5 | COc1ccc2c(c1)ncn2-c1ccc(NC(=O)Nc2cc(C(C)(C)C)on2)cc1 [Compound 5, 1-(5-tert-butyl-isoxazol-3-yl)-3-[4-(5-methoxyl-benzimidazol-1-yl)-phenyl]-urea] | > 1000 nM | > 1000 nM | > 1000 nM | > 1000 nM | > 1000 nM | > 1000 nM | > 1000 nM | > 1000 nM | 0.1 to 1 nM | 0.1 to 1 nM
6 | CC(C)(C)c1cc(NC(=O)Nc2ccc(-n3cnc4cc(OCCOCCO)ccc43)cc2)no1 [Compound 14, 1-(5-tert-butyl-isoxazol-3-yl)-3-(4-{5-[2-(2-hydroxy-ethoxyl)-ethoxyl]-benzimidazol-1-yl}-phenyl)-urea] | > 1000 nM | > 1000 nM | – | 100 to 1000 nM | > 1000 nM | > 1000 nM | > 1000 nM | 100 to 1000 nM | 0.1 to 1 nM | 0.1 to 1 nM
7 | COCCOc1ccc2c(c1)ncn2-c1ccc(NC(=O)Nc2cc(C(C)(C)C)nn2C)cc1 [Compound 101, 1-(5-tert-butyl-2-methyl-2H-pyrazol-3-yl)-3-{4-[5-(2-methoxyl-ethoxyl)-benzimidazol-1-yl]-phenyl}urea] | > 1000 nM | – | > 1000 nM | – | > 1000 nM | > 1000 nM | > 1000 nM | > 1000 nM | 0.1 to 1 nM | 0.1 to 1 nM
8 | Cn1nc(C(C)(C)C)cc1NC(=O)Nc1ccc(-n2cnc3cc(OCCN4CCOCC4)ccc32)cc1 [Compound 102] | > 1000 nM | – | > 1000 nM | – | > 1000 nM | > 1000 nM | > 1000 nM | > 1000 nM | 0.1 to 1 nM | 0.1 to 1 nM
9 | Cc1cc(N)nn1C(=O)Nc1ccc(-n2cnc3ccccc32)cc1 [Compound 113, 3-amino-5-methylpyrazol-1-carboxylic acid (4-benzimidazol-1-yl-phenyl)-amide] | > 1000 nM | > 1000 nM | > 1000 nM | > 1000 nM | > 1000 nM | > 1000 nM | > 1000 nM | > 1000 nM | – | –
